Structures can show the parent of a compound that is named as a salt.

Usually melting point stands for the temperature of the solid-liquid transition. `CCOc1ccc(C2=NN(c3ccc(C(=O)N4CCN(CCN5CCCC5)CC4)cc3)C(=O)[C@@H]3CC=CC[C@H]23)cc1OCC.Cl.Cl` [Compound 24, (4aS,8aR)-4-(3,4-Diethoxy-phenyl)-2-(4-{1-[4-(2-pyrrolidin-1-yl-ethyl)-piperazin-1-yl]-methanoyl}-phenyl)-4a,5,8,8a-tetrahydro-2H-phthalazin-1-one dihydrochloride] returned a melting point of 185 to 186 °C.

On to `CCOc1ccc(C2=NN(c3ccc(C(=O)N4CCN(c5ccc(C(F)(F)F)cn5)CC4)cc3)C(=O)[C@@H]3CC=CC[C@H]23)cc1OCC` [Compound 29, (4aS,8aR)-4-(3,4-Diethoxy-phenyl)-2-(4-{1-[4-(5-trifluoromethyl-pyridin-2-yl)-piperazin-1-yl]-methanoyl}-phenyl)-4a,5,8,8a-tetrahydro-2H-phthalazin-1-one], for which the melting point lay in the range of 121 to 123 °C.

`CCOc1ccc(C2=NN(c3ccc(C(=O)N4CCN(c5ccc([N+](=O)[O-])cn5)CC4)cc3)C(=O)C3CC=CCC23)cc1OCC` (as salt: hydrochloride) [Compound 18, (4aS,8aR)-4-(3,4-Diethoxyohenyl)-2-(4-{1-[4-(5-nitro-pyridin-2-yl)-piperazin-1-yl]-methanoyl}-phenyl)-4a,5,8,8a-tetrahydro-2H-phthalazin-1-one hydrochloride] returned a melting point of 117 to 118 °C.

As for `COc1ccc(C2=NN(c3ccc(C(=O)N4CCN(CCN(C)C)CC4)cc3)C(=O)C3CC=CCC23)c2c1OC(C)(C)C2` (as salt: hydrochloride) [Compound 14, (4aS,8aR)-2-{4-[4-(2-Dimethylamino-ethyl)-piperazine-1-carbonyl]-phenyl}-4-(7-methoxy-2,2-dimethy-2,3-dihydro-benzofuran-4-yl)-4a,5,8,8a-tetrahydro-2H-phthalazin-1-one dihydrochloride], the melting point is 245 °C (dec.).

The compound `CCOc1ccc(C2=NN(c3ccc(C(=O)N4CCN(c5nc(-c6ccccc6)ns5)CC4)cc3)C(=O)[C@@H]3CC=CC[C@H]23)cc1OCC` [Compound 17, (4aS,8aR)-4-(3,4-Diethoxyphenyl)-2-(4-{1-[4-(3-phenyl-1,2,4-thiadiazol-5-yl)-piperazin-1-yl]-methanoyl}-phenyl)-4a,5,8,8a-tetrahydro-2H-phthalazin-1-one] showed a melting point of 168 to 169 °C.

For `CCOc1ccc(C2=NN(c3ccc(C(=O)N4CCN(CCCN5CCOCC5)CC4)cc3)C(=O)[C@@H]3CC=CC[C@H]23)cc1OCC.Cl.Cl` [Compound 22, (4aS,8aR)-4-(3,4-Diethoxy-phenyl)-2-(4-{1-[4-(3-morpholin-4-yl-propyl)-piperazin-1-yl]-methanoyl}-phenyl)-4a,5,8,8a-tetrahydro-2H-phthalazin-1-one dihydrochloride], the melting point fell in the range of 170 to 171 °C.

For the compound `CCOC(=O)N1CCN(C(=O)c2ccc(N3N=C(c4ccc(OCC)c(OCC)c4)[C@H]4CC=CC[C@H]4C3=O)cc2)CC1` [Compound 7, 4-(1-{4-[(4aS,8aR)-4-(3,4-Diethoxyphenyl)-1-oxo-4a,5,8,8a-tetrahydro-1H-phthalazin-2-yl]-phenyl}-methanoyl)-piperazine-1-carboxylic acid ethyl ester], the melting point lay in the range of 146 to 147 °C.
